Measured values as given in patent US8822517B2, “Arylosulfonamides for the treatment of CNS diseases” (Adamed SP. Z O.O., priority 2010, dated 2014).

Assays:
[1] = biological target: T1, serotonine transporter (SERT) receptor (Homo sapiens, UniProt P31645); test: Binding assay SERT (h), [3H]imipramine, CHO cells; settings: read-out: SERT [%]
T1 construct: expressed in transfected cells; host or cells: CHO cells
Protocol: (§1) The specific ligand binding to the receptors is defined as the difference between the total binding and the nonspecific binding determined in the presence of an excess of so unlabelled ligand.
(§2) The specific Ligand binding to the receptor is defined as the difference between total and non-specific binding determined in the presence of an excess of unlabelled ligand. The compounds were tested at a concentration of 1×10^−6 M, and scintillation counting was the method of detection of ligand binding.

[2] = biological target: dopaminergic D3 receptor (Homo sapiens, UniProt P35462); test: Binding assay D3 (h), [3H]methyl-spiperone, CHO cells; parameters: expressed in transfected cells; host or cells: CHO cells; settings: read-out: D3 [%]
Protocol: as §1, §2

[3] = biological target: serotoninergic 5-HT2A receptor (Homo sapiens, UniProt P28223); test: Binding assay 5-HT2A (h), [3H]ketanserin, HEK-293 cells; parameters: expressed in transfected cells; host or cells: HEK-293 cells; settings: read-out: 5-HT2A
Protocol: as §1, §2

[4] = biological target: dopaminergic D2 receptor (Homo sapiens, UniProt P14416); test: Binding assay D2S (h), [3H]methyl-spiperone, HEK-293 cells; parameters: expressed in transfected cells; host or cells: HEK-293 cells; settings: read-out: D2 [%]
Protocol: as §1, §2

[5] = biological target: serotoninergic 5-HT6 receptor (Homo sapiens, UniProt P50406); test: Binding assay 5-HT6 (h), [3H]LSD, CHO cells; parameters: expressed in transfected cells; host or cells: CHO cells; settings: read-out: 5-HT6
Protocol: as §1, §2

[6] = biological target: T2, serotoninergic 5-HT1A receptor (Homo sapiens, UniProt P08908); test: Binding assay 5-HT1A (h), [3H]8-OH-DPAT, HEK-293 cells; parameters: expressed in transfected cells; host or cells: HEK-293 cells; settings: read-out: 5-HT1A
T2 sequence (P08908 1-422): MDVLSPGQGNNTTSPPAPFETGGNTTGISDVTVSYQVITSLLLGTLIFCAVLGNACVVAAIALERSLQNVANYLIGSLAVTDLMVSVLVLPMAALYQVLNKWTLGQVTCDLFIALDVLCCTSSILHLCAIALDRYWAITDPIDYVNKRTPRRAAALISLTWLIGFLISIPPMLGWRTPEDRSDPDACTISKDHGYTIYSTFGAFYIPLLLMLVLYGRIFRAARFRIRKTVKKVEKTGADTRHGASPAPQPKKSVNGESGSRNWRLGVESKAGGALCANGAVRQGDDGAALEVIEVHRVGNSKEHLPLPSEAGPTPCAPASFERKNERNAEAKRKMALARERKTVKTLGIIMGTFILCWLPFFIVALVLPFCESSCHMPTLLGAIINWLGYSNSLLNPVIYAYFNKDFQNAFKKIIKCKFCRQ
Protocol: as §1, §2

[7] = test system: adrenergic α1 receptor; test: Binding assay α1 (non-selective), [3H]prazosin, rat cerebral cortex; settings: percent inhibition of control specific binding; compounds tested at 1×10^−6 M
Protocol: as §1, §2

[8] = biological target: serotoninergic 5-HT7 receptor (Homo sapiens, UniProt P34969); test: Binding assay 5-HT7 (h), [3H]LSD, CHO cells; parameters: expressed in transfected cells; host or cells: CHO cells; settings: read-out: 5-HT7
Protocol: as §1, §2

Sequence of serotoninergic 5-HT2A receptor (P28223 whole entry): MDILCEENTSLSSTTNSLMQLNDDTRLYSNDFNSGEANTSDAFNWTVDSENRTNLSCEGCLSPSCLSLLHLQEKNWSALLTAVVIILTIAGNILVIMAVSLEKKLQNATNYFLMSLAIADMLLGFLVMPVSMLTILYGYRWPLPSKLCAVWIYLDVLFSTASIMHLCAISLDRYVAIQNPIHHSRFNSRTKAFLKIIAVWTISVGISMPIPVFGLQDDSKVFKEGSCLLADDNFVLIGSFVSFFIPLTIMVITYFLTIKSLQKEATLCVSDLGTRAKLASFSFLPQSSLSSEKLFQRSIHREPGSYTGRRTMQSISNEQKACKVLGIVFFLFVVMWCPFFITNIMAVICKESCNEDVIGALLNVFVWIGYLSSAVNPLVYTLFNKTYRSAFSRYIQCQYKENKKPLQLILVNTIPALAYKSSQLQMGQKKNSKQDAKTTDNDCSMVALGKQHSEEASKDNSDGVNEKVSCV
Sequence of serotoninergic 5-HT7 receptor (P34969 whole entry): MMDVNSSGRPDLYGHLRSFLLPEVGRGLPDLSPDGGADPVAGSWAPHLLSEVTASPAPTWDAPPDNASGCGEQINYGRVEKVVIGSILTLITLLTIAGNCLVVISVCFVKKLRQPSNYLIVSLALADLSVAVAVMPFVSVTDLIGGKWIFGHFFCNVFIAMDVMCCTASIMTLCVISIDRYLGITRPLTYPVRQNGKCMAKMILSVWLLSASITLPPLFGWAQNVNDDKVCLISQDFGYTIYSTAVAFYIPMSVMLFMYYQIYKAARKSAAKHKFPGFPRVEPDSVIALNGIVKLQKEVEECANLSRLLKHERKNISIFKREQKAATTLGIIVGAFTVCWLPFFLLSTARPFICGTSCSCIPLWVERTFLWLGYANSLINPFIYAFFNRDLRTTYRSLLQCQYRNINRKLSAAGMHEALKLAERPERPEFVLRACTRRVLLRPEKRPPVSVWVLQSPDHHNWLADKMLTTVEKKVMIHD
Sequence of dopaminergic D2 receptor (P14416 1-414 isoform P14416-2): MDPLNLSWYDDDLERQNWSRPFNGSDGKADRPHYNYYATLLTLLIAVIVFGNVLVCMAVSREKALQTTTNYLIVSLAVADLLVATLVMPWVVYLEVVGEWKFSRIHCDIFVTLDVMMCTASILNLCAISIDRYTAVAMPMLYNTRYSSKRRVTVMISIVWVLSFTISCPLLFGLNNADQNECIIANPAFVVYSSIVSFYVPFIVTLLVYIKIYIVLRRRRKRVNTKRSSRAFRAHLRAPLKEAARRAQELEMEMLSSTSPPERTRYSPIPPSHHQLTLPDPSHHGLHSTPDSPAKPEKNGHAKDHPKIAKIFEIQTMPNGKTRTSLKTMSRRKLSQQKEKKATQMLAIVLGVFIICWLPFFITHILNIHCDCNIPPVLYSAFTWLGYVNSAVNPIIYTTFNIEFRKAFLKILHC
T1 sequence (P31645 whole entry): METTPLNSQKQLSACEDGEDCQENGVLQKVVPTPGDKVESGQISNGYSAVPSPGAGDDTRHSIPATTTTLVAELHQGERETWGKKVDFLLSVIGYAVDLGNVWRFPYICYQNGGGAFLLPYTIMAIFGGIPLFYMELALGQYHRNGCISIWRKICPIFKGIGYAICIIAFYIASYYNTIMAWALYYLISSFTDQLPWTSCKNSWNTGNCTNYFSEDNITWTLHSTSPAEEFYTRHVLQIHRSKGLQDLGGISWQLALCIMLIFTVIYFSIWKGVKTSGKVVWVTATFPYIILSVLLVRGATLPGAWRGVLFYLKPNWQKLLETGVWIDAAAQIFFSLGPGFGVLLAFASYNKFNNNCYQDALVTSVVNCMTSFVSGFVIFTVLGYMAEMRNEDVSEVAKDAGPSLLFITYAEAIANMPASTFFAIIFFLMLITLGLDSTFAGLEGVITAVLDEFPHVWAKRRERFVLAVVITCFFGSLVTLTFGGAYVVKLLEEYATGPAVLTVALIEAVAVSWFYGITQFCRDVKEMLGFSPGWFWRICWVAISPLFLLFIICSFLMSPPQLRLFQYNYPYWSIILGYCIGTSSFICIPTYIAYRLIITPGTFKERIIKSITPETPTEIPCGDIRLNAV
Sequence of dopaminergic D3 receptor (P35462 whole entry): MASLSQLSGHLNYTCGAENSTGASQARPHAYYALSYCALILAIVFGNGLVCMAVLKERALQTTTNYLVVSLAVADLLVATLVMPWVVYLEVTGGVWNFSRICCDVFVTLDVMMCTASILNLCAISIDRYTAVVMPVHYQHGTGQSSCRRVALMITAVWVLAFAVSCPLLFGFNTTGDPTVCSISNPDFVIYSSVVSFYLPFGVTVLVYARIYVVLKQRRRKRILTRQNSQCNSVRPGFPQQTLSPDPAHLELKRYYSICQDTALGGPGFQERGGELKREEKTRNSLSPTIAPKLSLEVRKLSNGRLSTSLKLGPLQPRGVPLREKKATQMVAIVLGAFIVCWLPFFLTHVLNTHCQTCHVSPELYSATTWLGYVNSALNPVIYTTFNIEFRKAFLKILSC
Sequence of serotoninergic 5-HT6 receptor (P50406 whole entry): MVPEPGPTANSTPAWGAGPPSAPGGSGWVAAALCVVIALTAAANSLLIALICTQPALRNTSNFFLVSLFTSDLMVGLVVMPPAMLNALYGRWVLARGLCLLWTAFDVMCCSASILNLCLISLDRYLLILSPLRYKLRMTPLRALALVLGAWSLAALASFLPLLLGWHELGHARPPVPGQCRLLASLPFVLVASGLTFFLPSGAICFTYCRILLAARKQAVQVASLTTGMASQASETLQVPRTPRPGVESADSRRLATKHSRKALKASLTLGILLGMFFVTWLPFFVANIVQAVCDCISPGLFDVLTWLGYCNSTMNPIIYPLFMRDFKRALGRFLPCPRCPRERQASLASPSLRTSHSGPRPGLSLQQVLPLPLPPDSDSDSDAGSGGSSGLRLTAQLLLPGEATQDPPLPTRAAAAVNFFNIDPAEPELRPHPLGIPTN

Compound	inhibition at 1 µM [1] [%]	inhibition at 1 µM [2] [%]	inhibition at 1 µM [3] [%]	inhibition at 1 µM [4] [%]	inhibition at 1 µM [5] [%]	inhibition at 1 µM [6] [%]	α1 [%] [7] [%]	inhibition at 1 µM [8] [%]
O=C1COc2c(cccc2N2CCN(CCCCNS(=O)(=O)c3ccc(Cl)s3)CC2)N1 [Compound 431, 5-Chloro-N-[4-[4-(3-oxo-4H-1,4-benzoxazin-8-yl)piperazin-1-yl]butyl]thiophene-2-sulphonamide]	12	103	31	68	35	101	88	67
Cc1[nH]c2ccc(Cl)cc2c1C1=CCN(CCCNS(=O)(=O)c2cccc(Cl)c2)CC1 [Compound 138, N-[3-[4-(5-Chloro-2-methyl-1H-indol-3-yl)-3,6-dihydro-2H-pyridin-1-yl]propyl]-3-chlorobenzenesulphonamide]	25	57	62	40	95	54	8	52
O=S(=O)(NCCCCN1CCN(c2cccc3c2OCCO3)CC1)c1cc2ccccc2s1 [Compound 399, N-[4-[4-(2,3-Dihydro-1,4-benzodioxin-5-yl)piperazin-1-yl]butyl]benzothiophene-2-sulphonamide]	-22	92	82	79	23	99	99	96
O=S(=O)(NCCCCN1CCC(c2noc3cc(F)ccc23)CC1)c1cccc(F)c1 [Compound 107, 3-Fluoro-N-[4-[4-(6-fluoro-1,2-benzoxazol-3-yl)piperidin-1-yl]butyl]benzenesulphonamide]	-12	97	95	104	75	38	100	91
O=S(=O)(NCCCCN1CCN(c2nsc3ccccc23)CC1)c1ccc(C(F)(F)F)cc1 [Compound 234, N-[4-[4-(1,2-Benzothiazol-3-yl)piperazin-1-yl]butyl]-4-(trifluoromethyl)benzenesulphonamide]	32	91	92	85	62	95	91	97
O=C1COc2c(cccc2N2CCN(CCCCNS(=O)(=O)c3ccc(C(F)(F)F)cc3)CC2)N1 [Compound 429, N-[4-[4-(3-oxo-4H-1,4-benzoxazin-8-yl)piperazin-1-yl]butyl]-4-(trifluoromethyl)benzenesulphonamide]	22	104	35	61	-57	88	78	83
O=S(=O)(NCCCCN1CCN(c2nsc3ccccc23)CC1)c1ccc(OC(F)(F)F)cc1 [Compound 236, N-[4-[4-(1,2-Benzothiazol-3-yl)piperazin-1-yl]butyl]-4-(trifluoromethoxy)benzenesulphonamide]	-15	85	89	99	67	76	92	91
O=S(=O)(NCCCCN1CCN(c2cccc3c2OCCO3)CC1)c1ccc(F)c(Cl)c1 [Compound 392, 3-Chloro-N-[4-[4-(2,3-dihydro-1,4-benzodioxin-5-yl)piperazin-1-yl]butyl]-4-fluorobenzenesulphonamide]	-11	93	64	57	7	100	99	91
Cc1[nH]c2ccc(Cl)cc2c1C1=CCN(CCCCNS(=O)(=O)c2cccc3ccccc23)CC1 [Compound 366, N-[4-[4-(5-Chloro-2-methyl-1H-indol-3-yl)-3,6-dihydro-2H-pyridin-1-yl]butyl]-naphthalene-1-sulphonamide]	8	81	49	54	98	34	8	53
O=S(=O)(NCCCN1CC=C(c2c[nH]c3ccc(F)cc23)CC1)c1cccc(O)c1 [Compound 437, N-[3-[4-(5-Fluoro-1H-indol-3-yl)-3,6-dihydro-2H-pyridin-1-yl]propyl]-3-hydroxybenzenesulphonamide]	105	100	74	57	47	24	52	83
Cc1cc(S(=O)(=O)NCCCN2CCC(c3noc4cc(F)ccc34)CC2)c(C)s1 [Compound 342, N-[3-[4-(6-Fluoro-1,2-benzoxazol-3-yl)piperidin-1-yl]propyl]-2,5-dimethyl-thiophene-3-sulphonamide]	26	99	106	106	100	74	103	96
O=C1COc2c(cccc2N2CCN(CCCCNS(=O)(=O)c3cccc(C(F)(F)F)c3)CC2)N1 [Compound 430, N-[4-[4-(3-oxo-4H-1,4-benzoxazin-8-yl)piperazin-1-yl]butyl]-3-(trifluoromethyl)benzenesulphonamide]	19	101	87	69	94	86	46	84
Cc1[nH]c2ccc(Cl)cc2c1C1=CCN(CCNS(=O)(=O)c2cccc(O)c2)CC1 [Compound 453, N-[2-[4-(5-Chloro-2-methyl-1H-indol-3-yl)-3,6-dihydro-2H-pyridin-1-yl]ethyl]-3-hydroxybenzenesulphonamide]	23	56		48	107		23	76
Cc1[nH]c2ccc(Cl)cc2c1C1=CCN(CCCNS(=O)(=O)c2ccc(Cl)cc2)CC1 [Compound 444, 4-Chloro-N-[3-[4-(5-chloro-2-methyl-1H-indol-3-yl)-3,6-dihydro-2H-pyridin-1-yl]propyl]-benzenesulphonamide]	44	74	65		87	51	26	59
Cc1[nH]c2ccc(Cl)cc2c1C1=CCN(CCNS(=O)(=O)c2cccc(F)c2)CC1 [Compound 450, N-[2-[4-(5-Chloro-2-methyl-1H-indol-3-yl)-3,6-dihydro-2H-pyridin-1-yl]ethyl]-3-fluorobenzenesulphonamide]	54	39		15	96		−1	50
Cc1[nH]c2ccc(Cl)cc2c1C1=CCN(CCNS(=O)(=O)c2ccc(Cl)cc2)CC1 [Compound 451, 4-Chloro-N-[2-[4-(5-chloro-2-methyl-1H-indol-3-yl)-3,6-dihydro-2H-pyridin-1-yl]ethyl]-benzensulphonamide]	32	30		46	97		−4	25
